pIC50: −log10 of the molar value.
Tests used:
[1] = target: GSK3β (h) (Homo sapiens, UniProt P49841); assay: GSK-3β human kinase inhibition, SPA; type: biochemical; details: read-out: GSK3b pIC50 (converted)
Procedure, shortened: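 Radiometric: 33P-labelled peptide captured on streptavidin SPA beads after EDTA stop and imaged on Leadseeker. Reaction ran 1 h at RT, 1 μM cold ATP with 2 nM [γ-33P]ATP, 1 μM biotin-peptide substrate, human GSK3β 1 μg/ml, pH 7.4 Tris buffer.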

[2] = system: A2780; assay: Cellular proliferation assay (Alamar blue), A2780; type: cell-based; details: Homo sapiens, 10% FCS, 72 hours with compound, Alamar blue 24 h, read-out: A2780 (cellular proliferation assay, Table 4) (converted)
Procedure, shortened: (§1)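 Growth inhibition measured after 72 h incubation with compound, following 24 h pre-culture at 37° C, 5% CO2 with 10% FCS. Resazurin-based read-out at 544/590 nm after 4 h (HCT-116), 6 h (U87-MG) or 24 h (A2780, MDA-MB-231); results relative to control.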

[3] = target: PLK1 T210D (h) (Homo sapiens, UniProt P53350, T210D); assay: PLK1 human kinase inhibition, SPA; type: biochemical; details: read-out: PLK1 pIC50 (converted)
Sequence of PLK1 T210D (h) (P53350 whole entry T210D): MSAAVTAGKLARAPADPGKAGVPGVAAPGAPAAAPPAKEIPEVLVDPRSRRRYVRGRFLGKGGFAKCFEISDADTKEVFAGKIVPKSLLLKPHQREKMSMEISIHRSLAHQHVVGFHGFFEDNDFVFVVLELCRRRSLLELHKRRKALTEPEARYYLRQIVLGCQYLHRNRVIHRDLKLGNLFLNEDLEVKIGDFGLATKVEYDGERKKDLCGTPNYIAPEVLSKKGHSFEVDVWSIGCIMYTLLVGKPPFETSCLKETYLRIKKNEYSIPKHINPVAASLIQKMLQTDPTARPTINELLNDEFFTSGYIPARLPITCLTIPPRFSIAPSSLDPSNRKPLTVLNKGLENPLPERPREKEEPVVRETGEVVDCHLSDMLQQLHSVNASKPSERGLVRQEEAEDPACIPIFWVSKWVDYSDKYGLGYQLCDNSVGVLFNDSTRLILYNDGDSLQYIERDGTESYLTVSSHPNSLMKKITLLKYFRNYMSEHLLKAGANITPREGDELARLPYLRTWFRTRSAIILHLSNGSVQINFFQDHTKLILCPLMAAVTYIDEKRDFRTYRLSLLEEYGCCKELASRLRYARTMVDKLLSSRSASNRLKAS
Procedure, shortened: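 Kinase incubated 40 min at room temperature with 0.1 μM ATP (2 nM [γ-33P]ATP tracer), 2 μM biotinylated peptide, pH 8.0 Hepes buffer with 2 mM MnCl2 and 1 mM DTT; enzyme at 0.125 ng/ml. Stopped with EDTA; 33P-peptide bound to streptavidin scintillant beads and imaged.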

[4] = system: MDA-MB-231; assay: Cellular proliferation assay (Alamar blue), MDA-MB-231; type: cell-based; details: Homo sapiens, 10% FCS, 72 hours with compound, Alamar blue 24 h, read-out: MDA/MB231 (cellular proliferation assay, Table 4) (converted)
Procedure, shortened: as §1

[5] = target: PLK3 (h) (Homo sapiens, UniProt Q9H4B4); assay: PLK3 human kinase inhibition, SPA; type: biochemical; details: read-out: PLK3 pIC50 (converted)
Sequence of PLK3 (h) (Q9H4B4 whole entry): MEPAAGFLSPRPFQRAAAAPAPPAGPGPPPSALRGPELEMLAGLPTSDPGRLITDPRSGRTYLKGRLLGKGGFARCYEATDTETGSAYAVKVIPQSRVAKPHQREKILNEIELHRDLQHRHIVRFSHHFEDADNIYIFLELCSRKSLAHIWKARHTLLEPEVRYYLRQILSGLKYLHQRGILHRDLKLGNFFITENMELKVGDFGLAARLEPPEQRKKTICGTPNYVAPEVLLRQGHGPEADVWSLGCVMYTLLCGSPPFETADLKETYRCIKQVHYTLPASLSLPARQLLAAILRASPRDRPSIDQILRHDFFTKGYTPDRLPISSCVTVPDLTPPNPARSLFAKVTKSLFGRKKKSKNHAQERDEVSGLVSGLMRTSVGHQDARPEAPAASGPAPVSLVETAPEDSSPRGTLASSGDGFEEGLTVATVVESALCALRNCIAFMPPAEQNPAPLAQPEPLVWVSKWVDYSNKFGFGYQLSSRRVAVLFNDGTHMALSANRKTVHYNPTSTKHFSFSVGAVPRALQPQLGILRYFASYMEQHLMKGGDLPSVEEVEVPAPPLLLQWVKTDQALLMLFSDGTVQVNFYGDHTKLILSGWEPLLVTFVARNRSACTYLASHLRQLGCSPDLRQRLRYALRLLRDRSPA
Procedure, shortened: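 Radiometric scintillation proximity format at pH 8.0 (Hepes, MnCl2, DTT). The 2 μM biotin-peptide substrate is phosphorylated by PLK3 (h) (30 μg/ml) using 0.1 μM ATP traced with 33P, for 20 min at room temperature. EDTA stop; phosphopeptide captured on streptavidin beads and imaged.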

[6] = system: HCT-116; assay: Cellular proliferation assay (Alamar blue), HCT-116; type: cell-based; details: Homo sapiens, 10% FCS, 72 hours with compound, Alamar blue 4 h
Procedure, shortened: as §1

[7] = system: U87-MG; assay: Cellular proliferation assay (Alamar blue), U87-MG; type: cell-based; details: Homo sapiens, U-87 MG; 10% FCS; 72 hours with compound; Alamar blue 6 h; read-out: U87-MG (cellular proliferation assay, Table 4) (converted)
Procedure, shortened: as §1

[8] = target: CDK4/CyclinD1 (h) (Homo sapiens, UniProt P11802); assay: CDK4/CyclinD1 human kinase inhibition, SPA with GST-pRb substrate; type: biochemical; details: read-out: CDK4 pIC50 (converted)
Sequence of CDK4/CyclinD1 (h) (P11802 whole entry): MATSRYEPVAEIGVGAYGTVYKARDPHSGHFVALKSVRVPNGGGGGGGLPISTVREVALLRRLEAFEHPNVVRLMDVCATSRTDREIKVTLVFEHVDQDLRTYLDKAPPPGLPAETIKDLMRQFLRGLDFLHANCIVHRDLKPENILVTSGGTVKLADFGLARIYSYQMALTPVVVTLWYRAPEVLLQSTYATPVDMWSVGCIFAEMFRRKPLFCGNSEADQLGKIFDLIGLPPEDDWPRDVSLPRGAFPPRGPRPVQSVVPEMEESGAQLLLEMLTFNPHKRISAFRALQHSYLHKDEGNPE
Sequence of CDK4/CyclinD1 (h) (P24385 whole entry partner): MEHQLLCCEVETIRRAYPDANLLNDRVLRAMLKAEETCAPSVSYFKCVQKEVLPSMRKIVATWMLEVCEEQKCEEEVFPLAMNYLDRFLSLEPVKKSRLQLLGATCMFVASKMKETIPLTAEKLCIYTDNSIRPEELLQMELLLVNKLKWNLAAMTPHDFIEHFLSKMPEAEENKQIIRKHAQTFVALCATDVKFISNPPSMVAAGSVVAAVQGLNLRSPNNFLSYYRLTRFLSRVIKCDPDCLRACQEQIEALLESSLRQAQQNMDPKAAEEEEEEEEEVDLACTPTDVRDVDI
Procedure, shortened: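 Scintillation proximity format: after EDTA/Triton stop containing glutathione SPA beads, 33P incorporation was counted. The reaction ran 60 min at room temperature in Hepes pH 7.5 with NaF, MgCl2, DTT, using 2.5 μg/ml human CDK4/CyclinD1, 40 μg/ml GST-pRb substrate and 2 nM [γ-33P]ATP.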

[9] = system: H1299; assay: Cellular proliferation assay (Alamar blue), H1299; type: cell-based; details: Homo sapiens, NCI-H1299; 10% FCS; 72 hours with compound; Alamar blue 4 h
Procedure, shortened: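 This proliferation assay on NCI-H1299 cells used an initial 24-hour compound-free incubation after seeding, followed by 72 hours of compound treatment with 10% FCS serum at 37° C. and 5% (v/v) CO2. Viable cells were quantified by a 4 h Alamar blue incubation and fluorescent plate reading at 544 nm/590 nm, and effects were expressed relative to control cells.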

[10] = target: PLK2 (h) (Homo sapiens, UniProt Q9NYY3); assay: PLK2 human kinase inhibition, SPA; type: biochemical; details: read-out: PLK2 pIC50 (converted)
Sequence of PLK2 (h) (Q9NYY3 whole entry): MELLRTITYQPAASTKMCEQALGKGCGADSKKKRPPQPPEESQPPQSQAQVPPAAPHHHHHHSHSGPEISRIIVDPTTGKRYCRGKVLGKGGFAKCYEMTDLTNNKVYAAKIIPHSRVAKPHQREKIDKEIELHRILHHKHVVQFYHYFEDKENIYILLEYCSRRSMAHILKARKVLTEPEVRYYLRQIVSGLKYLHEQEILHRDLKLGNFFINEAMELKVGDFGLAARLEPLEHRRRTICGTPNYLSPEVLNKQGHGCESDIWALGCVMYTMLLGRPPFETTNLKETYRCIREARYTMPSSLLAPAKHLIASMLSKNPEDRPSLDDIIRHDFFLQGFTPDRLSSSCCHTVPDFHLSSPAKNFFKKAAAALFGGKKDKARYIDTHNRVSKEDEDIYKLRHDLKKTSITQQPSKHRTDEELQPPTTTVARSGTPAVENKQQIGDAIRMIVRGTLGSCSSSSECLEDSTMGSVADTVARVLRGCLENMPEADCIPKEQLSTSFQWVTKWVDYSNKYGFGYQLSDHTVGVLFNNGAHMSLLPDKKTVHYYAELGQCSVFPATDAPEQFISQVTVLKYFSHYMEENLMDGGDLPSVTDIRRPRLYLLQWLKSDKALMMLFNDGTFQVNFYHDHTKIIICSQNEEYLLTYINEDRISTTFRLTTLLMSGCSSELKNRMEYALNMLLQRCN
Procedure, shortened: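 33P incorporation into a biotinylated peptide (2 μM) was captured on streptavidin PVT beads and imaged on Leadseeker. Enzyme at 30 μg/ml, ATP 0.1 μM with 2 nM [γ-33P]ATP, Hepes pH 8.0 with MnCl2 and DTT. Incubation was 20 min at room temperature.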

Sequence of GSK3β (h) (P49841 whole entry): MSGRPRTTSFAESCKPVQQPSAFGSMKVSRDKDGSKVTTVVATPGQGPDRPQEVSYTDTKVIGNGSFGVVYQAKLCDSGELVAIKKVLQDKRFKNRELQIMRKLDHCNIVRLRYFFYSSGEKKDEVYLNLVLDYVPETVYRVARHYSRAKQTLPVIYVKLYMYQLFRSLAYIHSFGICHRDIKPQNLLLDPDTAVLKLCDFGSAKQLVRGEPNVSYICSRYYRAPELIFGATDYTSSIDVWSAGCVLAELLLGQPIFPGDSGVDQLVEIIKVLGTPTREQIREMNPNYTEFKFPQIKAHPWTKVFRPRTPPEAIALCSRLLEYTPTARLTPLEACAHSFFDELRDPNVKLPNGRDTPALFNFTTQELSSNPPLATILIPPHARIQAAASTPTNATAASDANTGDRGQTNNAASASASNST

SMILES | IC50 [1] | IC50 [2] | IC50 [3] | IC50 [4] | IC50 [5] | pIC50 [6] | IC50 [7] | IC50 [8] | pIC50 [9] | IC50 [10]
O=C1NCc2cccc(c2)-c2ccnc(n2)Nc2cc(ccc2Cl)CN[C@H]1Cc1ccccc1 [Compound 189] | 6.92 µM | > 10 µM | > 10 µM | > 10 µM | > 10 µM | < 5.00 | > 10 µM | 5.75 µM | < 5.00 | > 10 µM
C[C@@H]1NCc2ccc(cc2)Nc2nccc(n2)-c2cccc(c2)CNC1=O [Compound 190] | 1.29 µM | > 10 µM | > 10 µM | > 10 µM | > 10 µM | < 5.00 | > 10 µM | > 10 µM | < 5.00 | > 10 µM
O=C1NCc2cccc(c2)-c2ccnc(n2)Nc2ccc(cc2)CN[C@H]1Cc1ccccc1 [Compound 192] | > 10 µM | > 10 µM | > 10 µM | > 10 µM | > 10 µM | < 5.00 | > 10 µM | > 10 µM | < 5.00 | > 10 µM
O=C1CN2CCN(CC2)Cc2ccc(cc2)Nc2nccc(n2)-c2cccc(c2)CN1 [Compound 193] | 3.24 µM | > 10 µM | > 10 µM | > 10 µM | > 10 µM | < 5.00 | > 10 µM | 4.37 µM | < 5.00 | > 10 µM
O=C1CN2CCN(CC2)Cc2cc(ccc2N2CCOCC2)Nc2nccc(n2)-c2ccc(cc2)CN1 [Compound 194] | 6.03 µM | > 10 µM | > 10 µM | > 10 µM | > 10 µM | < 5.00 | > 10 µM | 1.7 µM | < 5.00 | > 10 µM
O=C1CN2CCN(CC2)Cc2ccc(Cl)c(c2)Nc2nccc(n2)-c2cccc(c2)CN1 [Compound 195] | > 10 µM | > 10 µM | > 10 µM | > 10 µM | > 10 µM | < 5.00 | > 10 µM | > 10 µM | < 5.00 | > 10 µM
O=C1CN2CCN(CC2)Cc2cccc(c2)Nc2nccc(n2)-c2cccc(c2)CN1 [Compound 196] | 1.07 µM | > 10 µM | > 10 µM | > 10 µM | > 10 µM | < 5.00 | > 10 µM | 6.17 µM | < 5.00 | > 10 µM

The remaining lines, values ahead:

IC50 [1] | IC50 [2] | IC50 [3] | IC50 [4] | IC50 [5] | pIC50 [6] | IC50 [7] | IC50 [8] | pIC50 [9] | IC50 [10] | SMILES
0.0275 µM | > 10 µM | > 10 µM | > 10 µM | > 10 µM | 5.16 | 6.76 µM | > 10 µM | 5.58 | > 10 µM | O=C1NCc2cccc(c2)-c2ccnc(n2)Nc2cccc(c2)CN[C@H]1Cc1ccccc1 [Compound 185]
> 10 µM | > 10 µM | > 10 µM | > 10 µM | > 10 µM | < 5.00 | > 10 µM | > 10 µM | < 5.00 | > 10 µM | C[C@@H]1NCc2ccc(Cl)c(c2)Nc2nccc(n2)-c2cccc(c2)CNC1=O [Compound 186]
0.0537 µM | 5.5 µM | > 10 µM | 7.94 µM | > 10 µM | 5.87 | > 10 µM | 1.2 µM | 5.21 | > 10 µM | O=C1NCc2cccc(c2)-c2ccnc(n2)Nc2cccc(c2)CN[C@H]1CO [Compound 187]
6.61 µM | > 10 µM | > 10 µM | > 10 µM | > 10 µM | < 5.00 | > 10 µM | > 10 µM | < 5.00 | > 10 µM | O=C1NCc2cccc(c2)-c2ccnc(n2)Nc2cc(ccc2Cl)CN[C@H]1CO [Compound 188]

Source: patent publication US8609836B2, “4-aryl-2-anilino-pyrimidines” (Janssen Pharmaceutica NV, priority 2008, dated 2013)
